pEC50: −log10 of the molar value.
Test system: HT-1080 cells
Assay: HT-1080 cell viability assay (ferroptosis induced by RSL3, Cell Titer-Glo)
Format: cell-based
Details: ferroptosis inducer RSL3, 20 hours, ferroptosis inhibitory activity, Table 2
Procedure: Example 2. Determination of EC50 Values in HT-1080 Cell Viability Assay
HT-1080 (ATCC, CCL-121) cells (6000 in 100 μl) were seeded in 96-well plates (Corning) and cultured in a 37° C. incubator with a humidified atmosphere of 5% CO2 for overnight. Cells were then treated with ferroptosis inducer RSL3 (TargetMol) and a 3-fold, 10-point serial dilution series of compounds with 1.1 μM as the highest concentration, for 20 hours. Cell viability was assessed using the Cell Titer-Glo Kit (Promega). The luminescence intensity was measured with a microplate reader (Envision, PerkinElmer), and cell viability was calculated by normalizing the data to untreated controls. The EC50 values of the compounds (e.g., Compounds 1-573 and 574-661) were calculated in GraphPad Prism (GraphPad Software, Inc., San Diego, CA, USA). The curves were fitted using a non-linear regression model with a sigmoidal dose response.

Q: `CCC(C)c1ccc(NC2CCC(N)CC2)cc1` (single isomer, unassigned) [Compound 289B, 1-N-(4-(sec-butyl)phenyl)cyclohexane-1,4-diamine] was tested. Which pEC50 did it give?
A: 6.00 to 7.00

Q: `CCC(C)(C)c1ccc(NC2CCC(NCCO)CC2)cc1` (single isomer, unassigned) [Compound 295A, 2-((4-((4-(tert-pentyl)phenyl)amino)cyclohexyl)amino)ethan-1-ol] was tested. Which pEC50 did it give?
A: 6.00 to 7.00

Q: How did the pEC50 turn out when `CCC(C)(C)c1ccc(NC2CCC(NCCO)CC2)cc1` (single isomer, unassigned) [Compound 295B, 2-((4-((4-(tert-pentyl)phenyl)amino)cyclohexyl)amino)ethan-1-ol] was run?
A: 7.00 to 10.00

Q: With `Cc1cc(NC2CCC(C)(N)CC2)cc(C)c1C` (single isomer, unassigned) [Compound 313A, 1-methyl-N4-(3,4,5-trimethylphenyl)cyclohexane-1,4-diamine] as the molecule, how does the pEC50 (Homo sapiens, HT-1080, 20 h) read?
A: 7.00 to 10.00

Q: `CC(C)(C)c1ccc(NCC2CC(N)C2)cc1` (single isomer, unassigned) [Compound 335A, N-((3-aminocyclobutyl)methyl)-4-(tert-butyl)aniline] was tested. Which pEC50 did it give?
A: 6.00 to 7.00

Q: With `CC(C)(C)c1ccc(NCC2CC(N)C2)cc1` (single isomer, unassigned) [Compound 335B, N-((3-aminocyclobutyl)methyl)-4-(tert-butyl)aniline] as the molecule, how does the pEC50 read?
A: 7.00 to 10.00

Q: How did the pEC50 turn out when `NC1CCC(Nc2ccc(N3CCCCC3CO)cc2)CC1` (single isomer, unassigned) [Compound 417A, (1-(4-((4-aminocyclohexyl)amino)phenyl)piperidin-2-yl)methanol] was run?
A: 7.00 to 10.00

Q: With `NC1CCC(Nc2ccc(N3CCCCC3CO)cc2)CC1` (single isomer, unassigned) [Compound 417B, (1-(4-((4-aminocyclohexyl)amino)phenyl)piperidin-2-yl)methanol] as the molecule, how does the pEC50 read?
A: 6.00 to 7.00

Q: `Cc1nc(N2CC(C)OC(C)C2)c(F)cc1NC1C2CC3CC1CC(CN)(C3)C2` (single isomer, unassigned) [Compound 539A, N-((2r,5s)-5-(aminomethyl)adamantan-2-yl)-6-(2,6-dimethylmorpholino)-5-fluoro-2-methylpyridin-3-amine] was tested. Which pEC50 did it give?
A: 7.00 to 10.00

Q: With `Cc1nc(N2CC(C)OC(C)C2)c(F)cc1NC1C2CC3CC1CC(CN)(C3)C2` (single isomer, unassigned) [Compound 539B, N-((2r,5s)-5-(aminomethyl)adamantan-2-yl)-6-(2,6-dimethylmorpholino)-5-fluoro-2-methylpyridin-3-amine] as the molecule, how does the pEC50 read?
A: 6.00 to 7.00

Q: `Cc1cc(NC2CC3(CC(N)C3)C2)cnc1N1C[C@H](C)O[C@@H](C)C1` (stereo in doubt) [Compound 480, N2-(6-((25,6S)-2,6-dimethylmorpholino)-5-methylpyridin-3-yl)spiro[3.3]heptane-2,6-diamine] was tested. Which pEC50 (Homo sapiens, HT-1080, 20 h) did it give?
A: 6.00 to 7.00

Q: With `COc1cc(NC[C@H]2CC[C@H](N)CC2)ccc1N1C[C@@H](C)O[C@H](C)C1` (stereo in doubt) [Compound 496, N-(((1r,4R)-4-aminocyclohexyl)methyl)-4-((2S,6R)-2,6-dimethylmorpholino)-3-methoxyaniline] as the molecule, how does the pEC50 (Homo sapiens, HT-1080, 20 h) read?
A: 6.00 to 7.00

Q: `NC(=O)[C@@H]1CCC(Nc2ccc(N3CCC(C(F)(F)F)CC3)cc2)[C@@H](N)C1` (stereo in doubt) [Compound 502, (1R,3S)-3-amino-4-((4-(4-(trifluoromethyl)piperidin-1-yl)phenyl)amino)cyclohexane-1-carboxamide] was tested. Which pEC50 (Homo sapiens) did it give?
A: 7.00 to 10.00

Q: How did the pEC50 (Homo sapiens, HT-1080, 20 h) turn out when `CCN1CC(C(=O)NCC2CCC(Nc3ccc(N4CCC(C(F)(F)F)CC4)cc3)CC2)CC1=O` (stereo not shown) [Compound 1, 1-ethyl-5-oxo-N-((4-((4-(4-(trifluoromethyl)piperidin-1-yl)phenyl)amino)cyclohexyl)methyl) pyr rolidine-3-carboxamide] was run?
A: 7.00 to 10.00

Q: `O=C1CC(C(=O)NCC2CCC(Nc3ccc(N4CCC(C(F)(F)F)CC4)cc3)CC2)CN1` (stereo not shown) [Compound 2, 5-oxo-N-((4-((4-(4-(trifluoromethyl)piperidin-1-yl)phenyl)amino)cyclohexyl)methyl)pyrrolidine-3-carboxamide] was tested. Which pEC50 (Homo sapiens, HT-1080, 20 h) did it give?
A: 7.00 to 10.00

Q: With `NCC1CCC(Nc2ccc(N3CCC(C(F)(F)F)CC3)cc2)CC1` (stereo not shown) [Compound 3, N-(4-(aminomethyl)cyclohexyl)-4-(4-(trifluoromethyl)piperidin-1-yl)aniline] as the molecule, how does the pEC50 (Homo sapiens, HT-1080, 20 h) read?
A: 7.00 to 10.00

Q: How did the pEC50 (Homo sapiens, HT-1080, 20 h) turn out when `CC1CCC(Nc2ccc(N3CCC(C(F)(F)F)CC3)cc2)CC1` (stereo not shown) [Compound 4A, N-(4-methylcyclohexyl)-4-(4-(trifluoromethyl)piperidin-1-yl)aniline] was run?
A: 7.00 to 10.00

Q: How did the pEC50 (Homo sapiens, HT-1080, 20 h) turn out when `CCN1CCC(Nc2ccc(N3CCC(C(F)(F)F)CC3)cc2)CC1` [Compound 5, 1-ethyl-N-(4-(4-(trifluoromethyl)piperidin-1-yl)phenyl)piperidin-4-amine] was run?
A: 7.00 to 10.00

Q: `COC(=O)C1CCC(Nc2ccc(N3CCC(C(F)(F)F)CC3)cc2)CC1` (stereo not shown) [Compound 6A, methyl 4-((4-(4-(trifluoromethyl)piperidin-1-yl)phenyl)amino)cyclohexane-1-carboxylate] was tested. Which pEC50 (Homo sapiens, HT-1080, 20 h) did it give?
A: 7.00 to 10.00

Q: With `CC(C)Nc1ccc(N2CCC(C(F)(F)F)CC2)cc1` [Compound 7, N-isopropyl-4-(4-(trifluoromethyl)piperidin-1-yl)aniline] as the molecule, how does the pEC50 (Homo sapiens, HT-1080, 20 h) read?
A: 7.00 to 10.00

Q: How did the pEC50 (Homo sapiens, HT-1080, 20 h) turn out when `CN(C)C1CCC(Nc2ccc(N3CCC(C(F)(F)F)CC3)cc2)CC1` (stereo not shown) [Compound 8, N1,N1-dimethyl-N4-(4-(4-(trifluoromethyl)piperidin-1-yl)phenyl)cyclohexane-1,4-diamine] was run?
A: 7.00 to 10.00

Q: With `O=C(O)C1CCC(Nc2ccc(N3CCC(C(F)(F)F)CC3)cc2)CC1` (stereo not shown) [Compound 9, 4-((4-(4-(trifluoromethyl)piperidin-1-yl)phenyl)amino)cyclohexane-1-carboxylic acid] as the molecule, how does the pEC50 (Homo sapiens, HT-1080, 20 h) read?
A: 5.00 to 6.00

Q: How did the pEC50 (Homo sapiens, HT-1080, 20 h) turn out when `NC(=O)C1CCC(Nc2ccc(N3CCC(C(F)(F)F)CC3)cc2)CC1` (stereo not shown) [Compound 10, 4-((4-(4-(trifluoromethyl)piperidin-1-yl)phenyl)amino)cyclohexane-1-carboxamide] was run?
A: 7.00 to 10.00

Q: How did the pEC50 (Homo sapiens, HT-1080, 20 h) turn out when `CC(C)(C)Nc1ccc(N2CCC(C(F)(F)F)CC2)cc1` [Compound 11, N-(tert-butyl)-4-(4-(trifluoromethyl)piperidin-1-yl)aniline] was run?
A: 6.00 to 7.00

Q: `COCCCCNc1ccc(N2CCC(C(F)(F)F)CC2)cc1` [Compound 12, N-(4-methoxybutyl)-4-(4-(trifluoromethyl)piperidin-1-yl)aniline] was tested. Which pEC50 (Homo sapiens, HT-1080, 20 h) did it give?
A: 7.00 to 10.00

Q: `CCNc1ccc(N2CCC(C(F)(F)F)CC2)cc1` [Compound 13, N-ethyl-4-(4-(trifluoromethyl)piperidin-1-yl)aniline] was tested. Which pEC50 (Homo sapiens, HT-1080, 20 h) did it give?
A: 7.00 to 10.00

Q: How did the pEC50 (Homo sapiens, HT-1080, 20 h) turn out when `CCCNc1ccc(N2CCC(C(F)(F)F)CC2)cc1` [Compound 14, N-propyl-4-(4-(trifluoromethyl)piperidin-1-yl)aniline] was run?
A: 7.00 to 10.00

Q: How did the pEC50 (Homo sapiens, HT-1080, 20 h) turn out when `CCCCCNc1ccc(N2CCC(C(F)(F)F)CC2)cc1` [Compound 15, N-pentyl-4-(4-(trifluoromethyl)piperidin-1-yl)aniline] was run?
A: 7.00 to 10.00

Q: With `CN1CCC(Nc2ccc(N3CCC(C(F)(F)F)CC3)cc2)C1` (stereo not shown) [Compound 16, 1-methyl-N-(4-(4-(trifluoromethyl)piperidin-1-yl)phenyl)pyrrolidin-3-amine] as the molecule, how does the pEC50 (Homo sapiens, HT-1080, 20 h) read?
A: 7.00 to 10.00

Q: With `FC(F)(F)C1CCN(c2ccc(NC3CCOCC3)cc2)CC1` [Compound 17, N-(4-(4-(trifluoromethyl)piperidin-1-yl)phenyl)tetrahydro-2H-pyran-4-amine] as the molecule, how does the pEC50 (Homo sapiens, HT-1080, 20 h) read?
A: 7.00 to 10.00

Q: With `O=C1NC[C@H](C(=O)NCC2CCC(Nc3ccc(N4CCC(C(F)(F)F)CC4)cc3)CC2)N1` (stereo partly drawn) [Compound 18, (R)-2-oxo-N-((4-((4-(4-(trifluoromethyl)piperidin-1-yl)phenyl)amino)cyclohexyl)methyl)imidaz olidine-4-carboxamide] as the molecule, how does the pEC50 (Homo sapiens, HT-1080, 20 h) read?
A: 7.00 to 10.00

Q: `O=C(NCC1CCC(Nc2ccc(N3CCC(C(F)(F)F)CC3)cc2)CC1)C1CCNC1` (stereo not shown) [Compound 19, N-((4-((4-(4-(trifluoromethyl)piperidin-1-yl)phenyl)amino)cyclohexyl)methyl)pyrrolidine-3-car boxamide] was tested. Which pEC50 (Homo sapiens, HT-1080, 20 h) did it give?
A: 7.00 to 10.00

Q: `FC(F)(F)C1CCN(c2ccc(NC3CCNCC3)cc2)CC1` [Compound 20, N-(4-(4-(trifluoromethyl)piperidin-1-yl)phenyl)piperidin-4-amine] was tested. Which pEC50 (Homo sapiens) did it give?
A: 7.00 to 10.00

Q: `NCC1CCC(Nc2ccc(N3CCC(C(F)(F)F)CC3)nc2)CC1` (stereo not shown) [Compound 21, N-(4-(aminomethyl)cyclohexyl)-6-(4-(trifluoromethyl)piperidin-1-yl)pyridin-3-amine] was tested. Which pEC50 (Homo sapiens, HT-1080, 20 h) did it give?
A: 7.00 to 10.00

Q: `Cc1cc(N2CCC(C(F)(F)F)CC2)nc(F)c1NC1CCC(CN)CC1` (stereo not shown) [Compound 22, N-(4-(aminomethyl)cyclohexyl)-2-fluoro-4-methyl-6-(4-(trifluoromethyl)piperidin-1-yl)pyridin-3-amine] was tested. Which pEC50 (Homo sapiens, HT-1080, 20 h) did it give?
A: 6.00 to 7.00

Q: With `CC(C)C1CCN(c2ncc(NC3CCC(CN)CC3)cn2)CC1` (stereo not shown) [Compound 24A, N-(4-(aminomethyl)cyclohexyl)-2-(4-isopropylpiperidin-1-yl)pyrimidin-5-amine] as the molecule, how does the pEC50 (Homo sapiens) read?
A: 7.00 to 10.00

Q: With `Cc1nc(N2CCC(C(F)(F)F)CC2)ccc1NC1CCC(CN)CC1` (stereo not shown) [Compound 25, N-(4-(aminomethyl)cyclohexyl)-2-methyl-6-(4-(trifluoromethyl)piperidin-1-yl)pyridin-3-amine] as the molecule, how does the pEC50 (Homo sapiens, HT-1080, 20 h) read?
A: 7.00 to 10.00

Q: With `Cc1nc(N2CCC(C)CC2)ccc1NC1CCC(CN)CC1` (stereo not shown) [Compound 26, N-(4-(aminomethyl)cyclohexyl)-2-methyl-6-(4-methylpiperidin-1-yl)pyridin-3-amine] as the molecule, how does the pEC50 (Homo sapiens, HT-1080, 20 h) read?
A: 7.00 to 10.00

Q: `CN1CCC(Nc2ccc(N3CCC(C(F)(F)F)CC3)cc2)CC1=O` (stereo not shown) [Compound 27, 1-methyl-4-((4-(4-(trifluoromethyl)piperidin-1-yl)phenyl)amino)piperidin-2-one] was tested. Which pEC50 (Homo sapiens, HT-1080, 20 h) did it give?
A: 6.00 to 7.00

Q: How did the pEC50 (Homo sapiens, HT-1080, 20 h) turn out when `CC(C)C1CCN(c2ncc(NC3CC(N)C3)cn2)CC1` (stereo not shown) [Compound 28, N1-(2-(4-isopropylpiperidin-1-yl)pyrimidin-5-yl)cyclobutane-1,3-diamine] was run?
A: 7.00 to 10.00

Reference: patent US20240360114A1 (SIRONAX LTD., priority 2021, published 2024)
